According to PubChem BioAssay (NCI):
Values joined by “and” are separate entries in the source; they are usually repeats but may differ in a detail not shown here. Equal values may be shown once.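 Results reflect a 48-hour exposure of cells in 96-well plates to compound at five concentrations. GI50 is the concentration that inhibits growth by half. Definition used: TGI = concentration required for complete inhibition of growth.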

Experiments:
Test in all cases: NCI-60 cell line screen, 48 h
HT29 colon = system: HT29 colon
IGROV1 ovarian = system: IGROV1 ovarian
SF-539 CNS = system: SF-539 CNS
K-562 leukemia = system: K-562 leukemia
SW-620 colon = system: SW-620 colon
A498 renal = system: A498 renal
RPMI-8226 leukemia = system: RPMI-8226 leukemia
MCF7 breast = system: MCF7 breast
NCI-H460 lung = system: NCI-H460 lung
COLO 205 colon = system: COLO 205 colon

Row | SMILES | GI50 (HT29 colon) | TGI (HT29 colon) | GI50 (IGROV1 ovarian) | TGI (IGROV1 ovarian) | GI50 (SF-539 CNS) | TGI (SF-539 CNS) | GI50 (K-562 leukemia) | TGI (K-562 leukemia) [nM] | GI50 (SW-620 colon) | TGI (SW-620 colon) | GI50 (A498 renal) | TGI (A498 renal) | GI50 (RPMI-8226 leukemia) | TGI (RPMI-8226 leukemia) | GI50 (MCF7 breast) | TGI (MCF7 breast) | GI50 (NCI-H460 lung) | TGI (NCI-H460 lung) | GI50 (COLO 205 colon) | TGI (COLO 205 colon)
1 | C[C@@H]1N=C(c2ccc(Br)cc2)Nc2nc3ccccn3c2C1=O | 3730 nM | > 100000 nM | 51900 nM | > 100000 nM | 7980 nM | 85300 nM | 4130 nM | > 100000 | 3750 nM | > 100000 nM | 3260 nM | 38200 nM | 7310 nM | > 100000 nM | 2990 nM | > 100000 nM | 3060 nM | > 100000 nM | 1870 nM | 4750 nM
2 | O=c1[nH]ccc2nc(N3CCC(O)CC3)nc(Nc3cccc(C(F)(F)F)c3)c12 | 3880 nM | 96300 nM |  |  | 5190 nM | 38600 nM | 3140 nM | > 100000 | 1910 nM | 12900 nM | 2500 nM | > 100000 nM | 2950 nM | 92000 nM | 2840 nM | 12700 nM | 1620 nM | 15000 nM | 3080 nM | 14500 nM
3 | Nc1cc(-c2cccc(OC(F)(F)F)c2)nc2ccc(N3CCCC3)cc12 | 35.5 nM and 33.8 nM and 35.4 nM |  | 69.8 nM and 62.3 nM and 79.3 nM | 25300 nM and > 100000 nM | 35.8 nM and 37.2 nM and 35.4 nM | 1240 nM and 1540 nM and 1420 nM | 29.8 nM and 17.5 nM and 17.6 nM |  | 43.5 nM and 41.3 nM and 36.6 nM | 22100 nM and > 100000 nM | 27.1 nM and 23 nM and 26.6 nM | 193 nM and 93.6 nM and 257 nM | 47.9 nM and 40.4 nM and 44.7 nM | 7320 nM and > 33200 nM and > 64900 nM | 37 nM and 36 nM and 35.4 nM | 17200 nM and > 100000 nM | 35.4 nM and 35.9 nM | 12500 nM and > 100000 nM | 41 nM and 39.1 nM and 35.7 nM | 1420 nM and 2610 nM
4 | Cc1cccc(Cl)c1NC(=O)/C=C/c1ccccc1 |  | > 100000 nM |  | > 100000 nM |  | > 100000 nM |  | > 100000 |  | > 100000 nM |  | > 100000 nM |  | > 100000 nM |  | > 100000 nM |  | > 100000 nM |  | > 100000 nM
5 | c1cc(OCCN2CCCCC2)ccc1CNc1ccc2nc(CCC3CCCCC3)[nH]c2c1 | 907 nM | 3700 nM | 2320 nM | 6590 nM | 1570 nM | 3060 nM | 852 nM | 3600 | 1820 nM | 3840 nM | 1670 nM | 4080 nM | 1490 nM | 3710 nM | 1700 nM | 4260 nM | 1940 nM | 3970 nM | 1760 nM | 3310 nM
6 | COc1ccc2c(CN3CCC[C@H]3C(=O)O)cc3cc4c(cc3c2c1)OCO4 | 8460 nM | 62000 nM | 25400 nM | > 100000 nM | 10700 nM | 29500 nM | 20200 nM | > 100000 | 5150 nM | 70400 nM | 11100 nM | 26400 nM | 9870 nM | 39300 nM | 13500 nM | 62300 nM | 14600 nM | 88200 nM | 6300 nM | 46200 nM
7 | CN(C)C1CCN(C(=O)c2ccc(NC(=O)Nc3ccc(-c4nc(N5CCOCC5)nc(N5CCOCC5)n4)cc3)cc2)CC1 | 13.8 nM and 15.3 nM and 13.1 nM | 266 nM and 2500 nM and 302 nM | < 10 nM and 7.88 nM and 10.3 nM | 55.3 nM and 57.4 nM and 141 nM | < 12.9 nM and 14.3 nM and 41.6 nM |  | 130 nM and 35.7 nM and 132 nM |  | 34.6 nM and 68.9 nM and 30 nM |  | 39.1 nM and 30 nM and 5.66 nM | 282 nM and 154 nM and 78.8 nM | 40.4 nM and 61.5 nM and 97.8 nM |  | 6.65 nM and 6.04 nM | 2500 nM and > 10000 nM | 29 nM and 33.4 nM and 60.8 nM |  | 13.6 nM and 33.4 nM and 12 nM | 155 nM and 545 nM and 188 nM
8 | C=C[C@H]1CCC/C=C/[C@@H]2C[C@H](O)C[C@H]2[C@H](O)/C=C/C(=O)O1 | 24.4 nM | 63.2 nM | 65.5 nM | > 100000 nM | 53.1 nM | > 100000 nM | 47.8 nM | > 100000 | 27.5 nM | 94.9 nM | 15 nM | 52.8 nM | 45 nM | > 100000 nM | 21 nM | 53.2 nM | 42.2 nM | > 100000 nM | 19.4 nM | 36.5 nM
9 | COc1cc2c(cc1OCCCCCCN1CCN(c3ncnc4ccccc34)CC1)N=CC1CCCN1C2=O (stereo unspecified) | 44.9 nM | 919 nM | 60.2 nM | 209 nM | 109 nM | 402 nM | 44.6 nM |  | 93.5 nM | 566 nM | 150 nM | 344 nM | < 20.7 nM | 103 nM | < 22.2 nM | 597 nM | 110 nM | 728 nM | 17.6 nM | 134 nM
10 | COc1cc2c(Oc3ccc4[nH]c(C)cc4c3F)ccnc2cc1OCC1(N)CC1 | 874 nM | 3300 nM | 1160 nM | 13000 nM | 315 nM | 1810 nM | 416 nM | 12300 | 757 nM | 11800 nM | 2200 nM | 19700 nM | 2100 nM | 5950 nM | 484 nM | 24600 nM | 908 nM | 6840 nM | 2290 nM | 5610 nM
11 | C=CCN(CC=C)C(=O)c1cc(C)nc2c1c(=O)n(-c1ccccc1)c(=O)n2CC(O)CN1CCN(c2ncccn2)CC1 (stereo unspecified) | > 100000 nM | > 100000 nM | > 100000 nM | > 100000 nM | > 100000 nM | > 100000 nM | > 100000 nM | > 100000 | > 100000 nM | > 100000 nM | > 100000 nM | > 100000 nM | > 100000 nM | > 100000 nM | 33300 nM | > 100000 nM | 26700 nM | > 100000 nM | > 100000 nM | > 100000 nM
12 | C=CCC(C(=O)O)c1ccccc1 (stereo unspecified) |  | > 100000 nM |  | > 100000 nM |  | > 100000 nM |  | > 100000 |  | > 100000 nM |  | > 100000 nM |  | > 100000 nM |  | > 100000 nM |  | > 100000 nM |  | > 100000 nM
13 | O=C([O][Hg][CH2]C1COCC([CH2][Hg][O]C(=O)c2ccccc2)O1)c1ccccc1 (stereo unspecified) |  |  | 2100 nM | 4170 nM | 23700 nM | 51800 nM | 2610 nM | 11900 | 1540 nM | 3320 nM | 17100 nM | 31200 nM | 2750 nM | 7660 nM | 1250 nM | 14200 nM | 20000 nM | 42500 nM | 1880 nM | 3550 nM
14 | COc1ccc(C2=C(c3ccc(OC)c(OC)c3)C(=O)OC2)cc1 | < 10 nM | > 100000 nM | 76.8 nM | > 62800 nM |  | > 24200 nM | < 10 nM |  |  | > 100000 nM | 80.3 nM | 42300 nM | 49.7 nM | 329 nM |  | > 48800 nM |  | > 100000 nM | < 23.8 nM | > 68100 nM
15 | NC(=N\N=C/c1cccc([N+](=O)[O-])c1)/C(N)=N\N=C/c1cccc([N+](=O)[O-])c1 | > 100000 nM | > 100000 nM | > 100000 nM | > 100000 nM | > 100000 nM | > 100000 nM | > 100000 nM | > 100000 | > 100000 nM | > 100000 nM | > 100000 nM | > 100000 nM | > 100000 nM | > 100000 nM | > 100000 nM | > 100000 nM |  |  | > 100000 nM | > 100000 nM
16 | CC[Si](CC)(CC)OC[C@]1([C@@H]2COC(C)(C)O2)CC=CC(=O)O1 | 46800 nM | > 100000 nM |  |  | 34500 nM | > 100000 nM | 34600 nM | > 100000 | 39100 nM | > 100000 nM | 20900 nM | 75700 nM | 18300 nM | 65600 nM | 43600 nM | > 100000 nM | 33900 nM | > 100000 nM | 40400 nM | > 100000 nM
17 | COc1ccc2c(c1)OC1=C(C(=O)OC1)C2c1cc(OC)c(OC)c(OC)c1 (stereo unspecified) | 345 nM | > 100000 nM | 3180 nM | > 100000 nM |  |  | 199 nM | > 100000 | 334 nM | > 100000 nM | 281 nM | 15100 nM | 514 nM | > 100000 nM | 350 nM | > 100000 nM | 359 nM | > 81200 nM | 312 nM | 974 nM
18 | CCCN1CCN(c2ccc3nc(-c4ccc5nc(-c6cc(OC)ccc6OC)[nH]c5c4)[nH]c3c2)CC1 | 1800 nM | 3460 nM | 13500 nM | 30300 nM | 14400 nM | 28700 nM |  |  | 1860 nM | 3570 nM | 15600 nM | 30400 nM | 2170 nM | 4790 nM | 1800 nM | 3820 nM | 1910 nM | 3560 nM | 2170 nM | 4830 nM
19 | COc1ccc(CNc2c3ccccc3nc3ccc(OC)cc23)cc1 | 2110 nM | 10100 nM | 3020 nM | 11100 nM | 1960 nM | 4130 nM | 2270 nM | 11100 | 2080 nM | 7220 nM | 1690 nM | 3330 nM |  |  | 2110 nM | 5710 nM | 2460 nM | 6410 nM | 1760 nM | 3990 nM
20 | Cc1cc(N2CCN(c3ccnc4cc(Cl)ccc34)CC2)nc(NC2CCCCC2)n1 | 1790 nM | 3900 nM | 2350 nM | 5350 nM |  |  | 2100 nM | 5640 | 1870 nM | 4350 nM | 118 nM | 3210 nM | 1850 nM | 4800 nM | 1570 nM | 3470 nM | 1880 nM | 3710 nM | 1650 nM | 3340 nM
